Drawing on patent EP4813463A2, “TYK2 INHIBITORS AND COMPOSITIONS AND METHODS THEREOF” (Lynk Pharmaceuticals Co. Ltd., priority 2023, dated 2024), this text covers IC50 for 18 compounds.

Molecules are shown by their SMILES. Like-named read-outs stand apart in the source and are kept apart here.

The target in one experiment is T1, TYK2-JH2 domain (Homo sapiens, UniProt P29597).
T1 construct: JAK1-JH2 domain or TYK2-JH2 domain enzyme in assay buffer
Put plainly: Binding activity test for JH2 domain of TYK2 (Tb-antibody/tracer FRET). The gist of the method:
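Competitive TR-FRET binding: compounds dispensed as an 11-point 3-fold dilution series, then Tb-labelled antibody and tracer added to the JH2 protein system. Incubated at 25°C, then overnight at 4°C; FRET signal read on Envision and IC50 (nM) derived.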

The test system of experiment [1] is Ba/F3-FL-TYK2-P760L cells. Description: Anti-proliferative assay in engineered Ba/F3 cells (Cell-Titer Glo, 72 h). It is filed as cell-based. Particulars: Mus musculus, concentration that causes 50% growth inhibition, read-out: Baf3-FL-T2P760L. As for the experimental part: Dimerization domain of Tel protein fused with JAK kinase domain was permanently transduced into Ba/F3 cells, whose proliferation is dependent on JAK activity in the absence of IL-3 induction. These engineered Ba/F3-FL-TYK2-P760L cells were used to monitor JAK inhibitory activities of the compounds in the cellular. Ba/F3 cells were cultured in RPMI-1640 (Corning) containing 10% fetal bovine serum. Cells were seeded at 2000/well of white flat bottom 96-well plates. The well containing medium only was used as background control. After 24h growth, cells were treated with compounds. The test compounds were dissolved in DMSO to a stock concentration of 20 mM. 3-fold serially diluted compounds for 9 concentrations with top concentration of 20 µM was added into the each well. The final DMSO concentration was 0.1%. The cells continued to grow at 37°C in 5% CO2 for 72 h after compound treatment. The viability was measured by cellular ATP determination using the Cell-Titer Glo luciferase reagent (Promega). The Luminescence value was recorded by a multi-label reader Envision (PerkinElmer). Inhibition Rate was calculated relative to vehicle (DMSO) treated control wells using following formula: % Inhibition = 100−(RLU_compound−RLU_blank)/(RLU_control−RLU_blank) × 100% [formula] wherein • RLU_compound = the relative light unit of cells treated with test compounds • RLU_blank = the relative light unit of medium with DMSO only • RLU_control = the relative light unit of cells treated with DMSO only
Table 4. Ba/F3-FL-TYK2-P760L Cells IC50 Values of Exemplary Compounds

Setting [2] is: JH2 domain enzyme; 60 min at 25°C, then 4°C overnight; read-out: TYK2 JH2 Binding IC50.
Setting [3] is: BaF3, 72 h, 72 h compound treatment.

T1 sequence (P29597 589-875 limits assumed): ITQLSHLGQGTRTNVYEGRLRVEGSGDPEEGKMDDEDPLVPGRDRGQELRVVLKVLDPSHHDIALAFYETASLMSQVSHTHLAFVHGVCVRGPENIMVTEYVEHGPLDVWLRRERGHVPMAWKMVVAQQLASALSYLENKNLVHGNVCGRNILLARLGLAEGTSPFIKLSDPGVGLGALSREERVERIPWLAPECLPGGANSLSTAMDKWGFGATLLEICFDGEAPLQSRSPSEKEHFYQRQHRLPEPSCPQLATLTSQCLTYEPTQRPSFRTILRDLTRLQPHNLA

Turning to `[2H]C([2H])([2H])Oc1c([C@@H](OC)C(F)(F)F)ccc2c1c(Nc1cc(NC(=O)C3CC3)ncc1C(=O)OC)nn2C` [Example 120B, Methyl (R)-6-(cyclopropanecarboxamido)-4-((4-(methoxy-d3)-1-methyl-5-(2,2,2-trifluoro-1-methoxyethyl)-1H-indazol-3-yl)amino)nicotinate], the IC50 at TYK2-JH2 domain (setting [2]) was found to be 0.442 nM; in experiment [1] (setting [3]) it was 107 nM.
Consider `COC(=O)c1cnc(NC(=O)[C@@H]2C[C@@H]2F)cc1Nc1nn(C)c2ccc(C(O)C(F)(F)F)c(OC)c12` (stereo partly drawn) [Example 122, Methyl 6-((1S,2S)-2-fluorocyclopropane-1-carboxamido)-4-((4-methoxy-1-methyl-5-(2,2,2-trifluoro-1-hydroxyethyl)-1H-indazol-3-yl)amino) nicotinate], for which the IC50 at TYK2-JH2 domain (setting [2]) came out at 0.178 nM; in experiment [1] (setting [3]) it was 1.16 nM.
For `[2H]C([2H])([2H])CC(=O)c1cnc(NC(=O)C2CC2)cc1Nc1nn(C)c2ccc(C#N)c(OC)c12` [Example 127, N-(4-((5-cyano-4-methoxy-1-methyl-1H-indazol-3-yl)amino)-5-(propanoyl-3,3,3-d3)pyridin-2-yl)cyclopropanecarboxamide], in that order: 0.256 nM and 52.3 nM.
As for `COC(=O)c1cnc(NC(=O)C2CC2)cc1Nc1nn(C)c2ccc(C(O)C3(F)CC3)c(OC)c12` (stereo not drawn) [Example 128, Methyl 6-(cyclopropanecarboxamido)-4-((5-((1-fluorocyclopropyl)(hydroxy)methyl)-4-methoxy-1-methyl-1H-indazol-3-yl)amino)nicotinate], the results for the IC50 (at TYK2-JH2 domain (setting [2]); in experiment [1] (setting [3])) were 0.26 nM and 17.3 nM, respectively.
For the compound `CCC(F)(F)c1cnc(NC(=O)C2CC2)cc1Nc1nn(C)c2ccc(C(O)C(F)(F)F)c(OC)c12` (stereo not drawn) [Example 129, N-(5-(1,1-difluoropropyl)-4-((4-methoxy-1-methyl-5-(2,2,2-trifluoro-1-hydroxyethyl)-1H-indazol-3-yl)amino)pyridin-2-yl)cyclopropanecarboxamide], the IC50 on TYK2-JH2 domain (setting [2]) is 0.466 nM; in experiment [1] (setting [3]), 1.41 nM.
On to `C/C=C(\F)c1cnc(NC(=O)C2CC2)cc1Nc1nn(C)c2ccc(C(O)C(F)(F)F)c(OC)c12` (stereo not drawn) [Example 130, (Z)-N-(5-(1-fluoroprop-1-en-1-yl)-4-((4-methoxy-1-methyl-5-(2,2,2-trifluoro-1-hydroxyethyl)-1H-indazol-3-yl)amino)pyridin-2-yl)cyclopropanecarboxamide], for which the IC50 turned out to be 0.688 nM on TYK2-JH2 domain (setting [2]) and 157 nM in experiment [1] (setting [3]).
Regarding `[2H]C([2H])([2H])CC(=O)c1cnc(NC(=O)C2CC2)cc1Nc1nn(C)c2ccc(COC)c(OC)c12` [Example 132, N-(4-((4-methoxy-5-(methoxymethyl)-1-methyl-1H-indazol-3-yl)amino)-5-(propanoyl-3,3,3-d3)pyridin-2-yl)cyclopropanecarboxamide], the figures for the IC50 (on TYK2-JH2 domain (setting [2]); in experiment [1] (setting [3])) were 0.174 nM and 25.9 nM, respectively.
For `COCc1ccc2c(c(Nc3cc(NC(=O)C4CC4)ncc3C(=O)OC)nn2C)c1OC` [Example 133, Methyl 6-(cyclopropanecarboxamido)-4-((4-methoxy-5-(methoxymethyl)-1-methyl-1H-indazol-3-yl)amino)nicotinate], in that order: 0.288 nM and 53.3 nM.
Take `[2H]C([2H])([2H])NC(=O)c1nnc(NC(=O)C2CC2)cc1Nc1nn(C)c2ccc([C@H](OC([2H])([2H])[2H])C(F)(F)F)c(OC)c12` [Example 135, (S)-6-(cyclopropanecarboxamido)-4-((4-methoxy-1-methyl-5-(2,2,2-trifluoro-1-(methoxy-d3)ethyl)-1H-indazol-3-yl)amino)-N-(methyl-d3)pyridazine-3-carboxamide]: the IC50 on TYK2-JH2 domain (setting [2]) came out at 0.07 nM; in experiment [1] (setting [3]), 0.327 nM.
`COC(=O)c1cnc(NC(=O)C2CC2)cc1Nc1nn(C)c2ccc(Cl)c(OC)c12` [Example 137, Methyl 4-((5-chloro-4-methoxy-1-methyl-1H-indazol-3-yl)amino)-6-(cyclopropanecarboxamido)nicotinate]: the IC50 turned out to be 0.377 nM on TYK2-JH2 domain (setting [2]) and 99.8 nM in experiment [1] (setting [3]).
In the case of `COC(=O)c1cnc(Nc2ccc(F)cn2)cc1Nc1nn(C)c2ccc(C(OC)C(F)(F)F)c(OC)c12` (stereo not drawn) [Example 142, Methyl 6-((5-fluoropyridin-2-yl)amino)-4-((4-methoxy-1-methyl-5-(2,2,2-trifluoro-1-methoxyethyl)-1H-indazol-3-yl)amino)nicotinate], the IC50 at TYK2-JH2 domain (setting [2]) is 0.185 nM; in experiment [1] (setting [3]), 12 nM.
In the same order, the values of `COC(=O)c1cnc(NC(=O)C2CC2)cc1Nc1nn(C)c2ccc(CC#N)c(OC)c12` [Example 145, Methyl 4-((5-(cyanomethyl)-4-methoxy-1-methyl-1H-indazol-3-yl)amino)-6-(cyclopropanecarboxamido)nicotinate] are 0.151 nM and 15.2 nM.
For `[2H]C([2H])([2H])CC(=O)c1cnc(NC(=O)C2CC2)cc1Nc1nn(C)c2ccc(Cl)c(OC)c12` [Example 147, N-(4-((5-chloro-4-methoxy-1-methyl-1H-indazol-3-yl)amino)-5-(propanoyl-3,3,3-d3)pyridin-2-yl)cyclopropanecarboxamide], in that order: 0.146 nM and 23.8 nM.
On to `COC(=O)c1cnc(NC(=O)C2CC2)cc1Nc1nn(C)c2ccc(CC(F)(F)F)c(OC)c12` [Example 148, Methyl 6-(cyclopropanecarboxamido)-4-((4-methoxy-1-methyl-5-(2,2,2-trifluoroethyl)-1H-indazol-3-yl)amino)nicotinate], for which the results for the IC50 (on TYK2-JH2 domain (setting [2]); in experiment [1] (setting [3])) were 0.091 nM and 7.08 nM, respectively.
For `[2H]C([2H])([2H])CC(=O)c1cnc(NC(=O)C2CC2)cc1Nc1nn(C)c2ccc(C(OC)C3(F)CC3)c(OC)c12` (stereo not drawn) [Example 150, N-(4-((5-((1-fluorocyclopropyl)(methoxy)methyl)-4-methoxy-1-methyl-1H-indazol-3-yl)amino)-5-(propanoyl-3,3,3-d3)pyridin-2-yl)cyclopropanecarboxamide], in that order: 0.154 nM and 32.7 nM.
Consider `[2H]C([2H])([2H])O[C@@H](c1ccc2c(c(Nc3cc(NC(=O)C4CC4)ncc3C(=O)NC)nn2C)c1OC)C(F)(F)F` [Example 151, (5)-6-(cyclopropanecarboxamido)-4-((4-methoxy-1-methyl-5-(2,2,2-trifluoro-1-(methoxy-d3)ethyl)-1H-indazol-3-yl)amino)-N-methylnicotinamide], for which the IC50 at TYK2-JH2 domain (read-out: TYK2 JH2 Binding IC50; JH2 domain enzyme; 60 min at 25°C, then 4°C overnight) came out at 0.053 nM; in experiment [1] (BaF3, 72 h compound treatment), 0.213 nM.
`[2H]C([2H])([2H])NC(=O)c1cnc(NC(=O)C2CC2)cc1Nc1nn(C)c2ccc([C@H](OC)C(F)(F)F)c(OC([2H])([2H])[2H])c12` [Example 152, (S)-6-(cyclopropanecarboxamido)-4-((4-(methoxy-d3)-1-methyl-5-(2,2,2-trifluoro-1-methoxyethyl)-1H-indazol-3-yl)amino)-N-(methyl-d3)nicotinamide]: the IC50 at TYK2-JH2 domain (setting [2]) is 0.071 nM; in experiment [1] (setting [3]), 0.284 nM.
For the compound `[2H]C([2H])([2H])NC(=O)c1cnc(NC(=O)C2CC2)cc1Nc1nn(C([2H])([2H])[2H])c2ccc([C@H](OC)C(F)(F)F)c(OC)c12` [Example 153, (S)-6-(cyclopropanecarboxamido)-4-((4-methoxy-1-(methyl-d3)-5-(2,2,2-trifluoro-1-methoxyethyl)-1H-indazol-3-yl)amino)-N-(methyl-d3)nicotinamide], the IC50 at TYK2-JH2 domain (setting [2]) worked out at 0.055 nM; in experiment [1] (setting [3]) it was 0.235 nM.
